Source: ChEMBL document CHEMBL3351305, “Structure-based design of a novel series of azetidine inhibitors of the hepatitis C virus NS3/4A serine protease” (Bioorg Med Chem Lett, 2014)
Activity calls are given as the source filed them. The calls are words filed in the database; no cut-off is given here.

Assays:
[1] = Inhibition of human leukocyte elastase
[2] = system: Hepatitis C virus serine protease, NS3/NS4A (Hepatitis C virus), D2K2A8+A3EZI9 [A156S]; assay: Inhibition of Hepatitis C virus genotype 1b Con1 NS3/4A A156S mutant by FRET assay; settings: Hepatitis C virus (isolate Con1)
[3] = biological target: Hepatitis C virus serine protease, NS3/NS4A (Hepatitis C virus, UniProt A3EZI9+D2K2A8); assay: Inhibition of full length Hepatitis C virus genotype 1b Con1 NS3/4A by FRET assay; set-up: species or system Hepatitis C virus (isolate Con1)
Sequence of Hepatitis C virus serine protease, NS3/NS4A (D2K2A8 whole entry): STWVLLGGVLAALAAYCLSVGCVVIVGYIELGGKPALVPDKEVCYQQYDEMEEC
Sequence of Hepatitis C virus serine protease, NS3/NS4A (A3EZI9 whole entry): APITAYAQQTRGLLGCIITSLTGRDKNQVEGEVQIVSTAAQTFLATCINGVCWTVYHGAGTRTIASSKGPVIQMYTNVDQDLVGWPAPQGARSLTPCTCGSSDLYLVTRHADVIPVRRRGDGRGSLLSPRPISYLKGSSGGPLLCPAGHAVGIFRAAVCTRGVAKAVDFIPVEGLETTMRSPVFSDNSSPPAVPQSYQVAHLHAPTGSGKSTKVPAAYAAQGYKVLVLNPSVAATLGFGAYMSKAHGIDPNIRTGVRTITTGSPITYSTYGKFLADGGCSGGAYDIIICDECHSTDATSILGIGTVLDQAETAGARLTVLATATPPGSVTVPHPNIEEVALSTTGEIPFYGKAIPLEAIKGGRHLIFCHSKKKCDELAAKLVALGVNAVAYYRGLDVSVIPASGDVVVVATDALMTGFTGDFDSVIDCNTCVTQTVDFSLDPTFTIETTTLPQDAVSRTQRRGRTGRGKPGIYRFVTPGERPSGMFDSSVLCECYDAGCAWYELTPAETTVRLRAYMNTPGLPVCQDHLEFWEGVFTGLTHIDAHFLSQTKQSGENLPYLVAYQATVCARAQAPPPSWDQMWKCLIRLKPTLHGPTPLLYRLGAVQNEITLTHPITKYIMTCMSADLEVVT

Hepatitis C virus = assay: Antiviral activity against Hepatitis C virus genotype 1b Con1 infected in human Huh7 cells assessed as inhibition of NS4A expression by ELISA; type: functional, cell-based, Hepacivirus hominis; settings: genotype 1b Con1, Huh-7
[4] = Half life in rat liver microsomes; type: ADME
[5] = Clearance in rat liver microsomes assessed per mg protein; type: ADME; settings: read-out: CLH
[6] = Clearance in human liver microsomes assessed per mg protein; type: ADME; settings: read-out: CLH
[7] = Clearance in cynomolgus monkey liver microsomes assessed per mg protein; type: ADME, Macaca fascicularis; settings: read-out: CLH
[8] = Half life in cynomolgus monkey liver microsomes; type: ADME, Macaca fascicularis
[9] = Half life in human liver microsomes; type: ADME
[10] = Selectivity index, ratio of CC50 for human Huh7 cells to EC50 for Hepatitis C virus genotype 1b Con1; type: toxicity, cell-based, Huh-7; settings: read-out: Ratio CC50/EC50

Structure (SMILES)	IC50 [3] [nM]	EC50 (Hepatitis C virus) [nM]	also measured
CCC[C@H](NC(=O)[C@@H]1[C@H]2CCC[C@H]2CN1C(=O)[C@@H](NC(=O)[C@@H](NC(=O)c1cnccn1)C1CCCCC1)C(C)(C)C)C(=O)C(=O)NC1CC1 [TELAPREVIR]			IC50 [1]: 600 nM; inhibition [2]: inactive
COc1ccc2c(OC[C@H]3C[C@@H]4C(=O)N(C)CCCC/C=C\[C@H]5C[C@]5(C(=O)NS(=O)(=O)C5CC5)NC(=O)N34)cc(-c3ccccc3)nc2c1	3.5	242	
COc1ccc2c(OC[C@H]3C[C@@H]4C(=O)N[C@@]5(C(=O)NS(=O)(=O)C6CC6)C[C@@H]5/C=C\CCCCN(C)C(=O)N34)cc(-c3ccccc3)nc2c1	278		
COc1ccc2c(OC[C@@H]3C[C@H]4C(=O)N(C)CCCC/C=C\[C@H]5C[C@]5(C(=O)NS(=O)(=O)C5CC5)NC(=O)N34)cc(-c3nc(C(C)C)cs3)nc2c1Cl	< 1000	< 750	
CC(C)(C)NC(=O)N[C@H](C(=O)N1C[C@H]2[C@@H]([C@H]1C(=O)NC(CC1CCC1)C(=O)C(N)=O)C2(C)C)C(C)(C)C (some centres not stated)			inhibition [2]: inactive
COc1ccc2c(OC[C@@H]3C[C@H]4C(=O)N(C)CCCC/C=C\[C@H]5C[C@]5(C(=O)NS(=O)(=O)C5(C)CC5)NC(=O)N34)cc(-c3nc(C(C)C)cs3)nc2c1C	6.6	45	half-life [4]: < 10 min; microsomal CLint [5]: > 150 µL/min/mg; microsomal CLint [6]: > 150 µL/min/mg; microsomal CLint [7]: > 150 µL/min/mg; half-life [8]: < 10 min; half-life [9]: < 10 min
COc1ccc2c(OC[C@@H]3C[C@H]4C(=O)N(C)CCCC/C=C\[C@H]5C[C@]5(C(=O)NS(=O)(=O)C5(C)CC5)NC(=O)N34)cc(-c3nc(C(C)C)cs3)nc2c1F	16.8	872	inhibition [2]: inactive
COc1ccc2c(OC[C@@H]3C[C@H]4C(=O)N(C)CCCC/C=C\[C@H]5C[C@]5(C(=O)NS(=O)(=O)C5CC5)NC(=O)N34)cc(-c3nc(C(C)C)cs3)nc2c1C	< 1000	< 750	
COc1ccc2c(O[C@@H]3C[C@H]4C(=O)N[C@]5(C(=O)O)C[C@H]5/C=C\CCCCC[C@H](NC(=O)OC5CCCC5)C(=O)N4C3)cc(-c3csc(NC(C)C)n3)nc2c1 [CILUPREVIR]	0.8	2.8	
COc1ccc2c(OC[C@@H]3C[C@H]4C(=O)N(C)CCCC/C=C\[C@H]5C[C@]5(C(=O)NS(=O)(=O)C5(C)CC5)NC(=O)N34)cc(-c3nc(C(C)C)cs3)nc2c1Cl	2.1	60	selectivity ratio [10]: > 1500; half-life [4]: < 10 min; microsomal CLint [5]: > 150 µL/min/mg; microsomal CLint [6]: > 150 µL/min/mg; microsomal CLint [7]: > 150 µL/min/mg; half-life [8]: < 10 min; half-life [9]: < 10 min
COc1ccc2c(OC[C@@H]3C[C@H]4C(=O)N[C@@]5(C(=O)NS(=O)(=O)C6CC6)C[C@@H]5/C=C\CCCCN(C)C(=O)N34)cc(-c3ccccc3)nc2c1	2400		
COc1ccc2c(OC[C@@H]3C[C@H]4C(=O)N(C)CCCC/C=C\[C@H]5C[C@]5(C(=O)NS(=O)(=O)C5CC5)NC(=O)N34)cc(-c3ccccc3)nc2c1	45	1860	
COc1ccc2c(OC[C@@H]3C[C@H]4C(=O)N(C)CCCC/C=C\[C@H]5C[C@]5(C(=O)NS(=O)(=O)C5(C)CC5)NC(=O)N34)cc(-c3nc(C(C)C)cs3)nc2c1	1.3	412	
